Experimental findings from patent US10286092B2, “Detecting a therapeutic cell” (UCL Business PLC, priority 2015, dated 2019) are described below.

Numbering of substitutions follows the chain as printed. Names may count otherwise. “And” between values parts separate entries of the source, which are not always exact repeats. Identical values can stand only once. “Also recorded” adds a separate entry of the source.

Experiment [1] addresses T1, hDAT (Homo sapiens, UniProt Q01959).
T1 construct: expressed in transfected cells; host or cells: SupT1 human T-cell line, retrovirally transduced with SFG.hDAT.I.CD34 (co-transduced with FLuc for in vivo work)
Nature of the experiment: In vitro radiosubstrate binding assay, hDAT expressing T-cells. The method, then: (§1) Reporter protein binding capabilities was assessed in a method previously described. Briefly, 1×10^6 all hDAT expressing T-cells and the non-transduced control cells were incubated at 37° C. with 7.4 kBq ^123I-FP-CIT (GE, Healthcare) for 30 mins. At each time point, cells were rapidly washed twice with 500 μL ice-cold PBS and the supernatant collected. Cell pellets were re-suspended in 1 mL PBS. ^123I-FP-CIT binding in cells and medium was measured using a gamma counter (WIZARD^2, PerkinElmer, UK). To determine the non-specific binding of the ^123I-FP-CIT in hDAT (+) cells, transduced cells and non-transduced cells were incubated with 50 μM of β-CIT-FP (ABX) for 5 min. ^123I-FP-CIT cells were subsequently prepared for gamma counting as mentioned above. All experiments were performed in triplicates and repeated ≥twice. All results are given as mean±standard deviation of the mean (SD). The data was analysed using one way analysis of variance (ANOVA) followed by the Tukey's HSD test with the IBM SPSS software.

Another experiment concerns the target T2, DAT (Mus musculus, UniProt Q61327).
T2 construct: the striatum (region with high endogenous expression of DAT); from tissue; host or cells: striatum of living NSG mice (in vivo SPECT)
Briefly: SPECT/CT imaging of striatum (endogenous DAT) in NSG mice. The experiment is classed as in vivo. The following applies: NSG mice n=4. The method, then:
(§2) Animals were administered with 1.5 mmol/kg of the thyroid blocking agent potassium perchlorate (Sigma Aldrich, USA) intraperitoneally one hour prior to imaging. Animals were imaged with a NanoSPECT/CT small animal in vivo scanner (Mediso, Hungary) consisting of a rotating double headed camera (company, country). 1.2 mm pinhole mouse apertures were used. Imaging was performed under isoflurane (1.5-2%) and the body temperature was maintained at 37° C. using a heated animal bed (Minerve, France). For the kinetic study, animals were administered with an average of 17.25±1.22 MBq of ^123I-FP-CIT i.v. and 15 min. brain scans were acquired day 25 post tumour inoculation at 15 min. 2 h, 4 h, 6 h and 8 h. Images were reconstructed using HiSPECT software (InviCRO, USA) and image processing analysis was performed (VivoQuant Software; InviCRO, USA).
Time activity profiles were generated evaluate the hDAT reporter system in vivo. […] The percentage in injected dose per mm^3 (% ID/mm^3) was calculated by; injected dose (MBq)/counts in the whole body (MBq)/volume of the ROI (mm^3) to determine the peak uptake time and the optimum imaging window. […] The binding ratios were calculated by determining the mean counts per pixel in the specific region (hDAT expressing xenograft for the hDAT: cerebellum and hDAT: striatum ratios) divided by the mean counts per pixel in the nonspecific region.

Experiment [2] deals with non-transduced SupT1 cells. Briefly: SPECT imaging of control animals injected with non-transduced SupT1 cells. Conditions: intracranially injected non-transduced SupT1 cells. The experiment is classed as in vivo, mouse. The method, then: as §2
Experiment [3] deals with control non-transduced (NT) SupT1 cells. Nature of the experiment: In vitro radiosubstrate binding assay, non-transduced control cells. The following applies: 7.4 kBq, 37° C., 30 min. Further details: species or system human. The method, then: as §1
Experiment [4] has as its target T1, hDAT. Nature of the experiment: SPECT/CT imaging of hDAT-positive brain xenografts in NSG mice. The experiment is classed as in vivo. The following applies: for specific to non-specific binding ratio hDAT: cerebellum: NSG mice n=4. The method, then: All animal procedures were carried out in accordance with the UK Animals (Scientific Procedures) 1986 Act and institutional ethics regulation. NSG mice were bred in-house and kept according to institutional guidelines. Male mice 6-10 weeks old were injected with 2 mg/kg body weight of 5% carprofen (Norbrook) and anaesthetised with 3-5% Isoflurane (ABBOTT, UK) in an induction chamber. Animals were placed in a stereotactic frame (David Kopf Instruments) with an anaesthesia head holder to deliver 3% isoflurane. A sagittal incision over the parieto-occipital bone using a sterile scalpel (Swann Morton Ltd) was made and a blunt ended Hamilton (75N, 26s/2″/2′5 ul) syringe with SupT1/hDAT.I.CD34 was placed 1.5 mm lateral and 1 mm anterior of bregma. The needle was lowered 4 mm in the brain through a burr hole and retracted 1 mm to create a small reservoir where the cells (1×10^4 in a 3 μl volume) were injected.
as §2
Time activity profiles were generated evaluate the hDAT reporter system in vivo. Regions of interest (ROIs) for the hDAT expressing xenografts, cerebellum (chose background region) and striatum were drawn on the SPECT/MR/CT coregistered data. The percentage in injected dose per mm^3 (% ID/mm^3) was calculated by; injected dose (MBq)/counts in the whole body (MBq)/volume of the ROI (mm^3) to determine the peak uptake time and the optimum imaging window. A method based on the striatal binding ratio was utilised to determine specific-to-nondisplaceable binding ratios previously described as indicative of the binding potential at the time of binding equilibrium^6,7. The binding ratios were calculated by determining the mean counts per pixel in the specific region (hDAT expressing xenograft for the hDAT: cerebellum and hDAT: striatum ratios) divided by the mean counts per pixel in the nonspecific region.

Experiment [5] has as its target T1, hDAT. Briefly: PET/CT imaging of hDAT positive cells in mouse brain. It is filed as in vivo. Conditions: i.v. The method, then: Animals were administered with 1.5 mmol/kg of the thyroid blocking agent potassium perchlorate (Sigma Aldrich, USA) intraperitoneally one hour prior to imaging. Animals were imaged with a PET/CT small animal in vivo scanner (Mediso, Hungary). Imaging was performed under isoflurane (1.5-2%) and the body temperature was maintained at 37° C. using a heated animal bed (Minerve, France). Four weeks post tumour inoculation, animals were administered with 5 MBq of ^18F-FP-CIT i.v. and brain scans were acquired 30 min post injection. A high-resolution CT was acquired immediately following […] imaging. Images were reconstructed using HiSPECT software (InviCRO, USA) and image processing analysis was performed (VivoQuant Software; InviCRO, USA).

Experiment [6] in a line: Binding of 123I-FP-CIT by hDAT and hDAT variant proteins from different constructs. The following applies: for binding of [123I]-FP-CIT by hDAT variant: compared to wild-type hDAT, FIG. 7. The method, then: as §1
Where [7] appears, read: after 4 h post i.v. injection (constant).

T1 sequence (Q01959 whole entry): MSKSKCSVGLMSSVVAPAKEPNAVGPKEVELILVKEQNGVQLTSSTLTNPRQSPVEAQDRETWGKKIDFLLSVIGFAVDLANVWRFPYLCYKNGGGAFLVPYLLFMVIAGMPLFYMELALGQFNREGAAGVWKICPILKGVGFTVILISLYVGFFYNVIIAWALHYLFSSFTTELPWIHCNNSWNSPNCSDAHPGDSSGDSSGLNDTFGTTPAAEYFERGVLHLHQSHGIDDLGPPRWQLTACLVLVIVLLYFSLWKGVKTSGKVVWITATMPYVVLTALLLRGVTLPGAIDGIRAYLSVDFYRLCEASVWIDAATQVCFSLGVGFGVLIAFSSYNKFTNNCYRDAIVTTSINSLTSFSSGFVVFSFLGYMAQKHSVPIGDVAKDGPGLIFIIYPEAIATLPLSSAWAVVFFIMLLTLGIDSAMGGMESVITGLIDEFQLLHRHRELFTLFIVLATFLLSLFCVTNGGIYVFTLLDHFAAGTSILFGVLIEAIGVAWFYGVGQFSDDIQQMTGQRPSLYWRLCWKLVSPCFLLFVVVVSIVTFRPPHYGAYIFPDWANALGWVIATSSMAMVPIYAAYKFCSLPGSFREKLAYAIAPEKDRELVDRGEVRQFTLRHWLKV
T2 sequence (Q61327 whole entry): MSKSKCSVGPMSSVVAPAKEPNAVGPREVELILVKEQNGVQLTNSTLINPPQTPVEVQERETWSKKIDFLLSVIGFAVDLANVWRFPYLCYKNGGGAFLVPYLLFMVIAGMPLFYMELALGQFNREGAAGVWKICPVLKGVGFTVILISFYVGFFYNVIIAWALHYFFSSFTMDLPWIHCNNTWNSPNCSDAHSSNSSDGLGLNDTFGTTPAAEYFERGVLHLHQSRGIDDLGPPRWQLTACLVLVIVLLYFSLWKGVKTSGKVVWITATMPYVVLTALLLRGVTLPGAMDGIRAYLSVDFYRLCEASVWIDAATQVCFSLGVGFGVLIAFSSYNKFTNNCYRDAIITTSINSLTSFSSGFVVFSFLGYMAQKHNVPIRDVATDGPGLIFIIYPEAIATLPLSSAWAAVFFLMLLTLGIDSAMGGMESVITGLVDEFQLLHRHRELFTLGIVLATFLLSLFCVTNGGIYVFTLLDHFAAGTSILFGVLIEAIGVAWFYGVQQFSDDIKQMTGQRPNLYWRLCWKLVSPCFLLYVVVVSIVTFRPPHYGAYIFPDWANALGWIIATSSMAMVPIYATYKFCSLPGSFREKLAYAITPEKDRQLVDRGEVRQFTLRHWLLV

As to `COC(=O)[C@H]1[C@@H](c2ccc(I)cc2)C[C@@H]2CC[C@H]1N2CCCF` [[I]-FP-CIT], the “% [123I]-FP-CIT binding in the presence of [I]-FP-CIT” value on hDAT [1] (SupT1/SFG.hDAT.I.CD34 cells co-incubated with cold compound, 50 μM) worked out at 1.10±0.22%. Besides, the “fold reduction of [123I]-FP-CIT binding in the presence of [I]-FP-CIT” value on hDAT [1] (SupT1/SFG.hDAT.I.CD34 cells, cold compound 50 μM, p<0.001) is recorded as 32 fold. Besides, the “inhibition of [123I]-FP-CIT binding by cold compound (in words)” value on hDAT [1] (hDAT positive T-cells, co-incubation with cold compound 50 μM) was “complete binding inhibition; also recorded: completely abolished”.
`COC(=O)[C@H]1[C@@H](c2ccc(I)cc2)C[C@@H]2CC[C@H]1N2CCCF` [[^123I]-FP-CIT, [I-^123] N-ω-fluoropropyl-2β-carbomethoxy-3β-(4-iodophenyl) nortropane]: the “percentage [123I]-FP-CIT binding” value at hDAT [1] (SupT1/SFG.hDAT.I.CD34 cells, 7.4 kBq, 37° C., 30 min) is given as 35.10±5.24%; in experiment [3], 1.41±0.40%. In addition, at hDAT [1] (hDAT cells vs non-transduced SupT1 cells), the “fold greater % [123I]-FP-CIT binding in SupT1/SFG.hDAT.I.CD34 compared to control cells” value is 25 fold and 27 fold. The “specific to non-specific binding ratio striatum: cerebellum” value on DAT (2 h post i.v. injection (peak)) came out at 6.56±2.40; on DAT (setting [7]) it was 4.08±0.60. Moreover, the “SPECT signal in control animals” value in experiment [2] is recorded as “non-detectable”. Moreover, the “specific to non-specific binding ratio hDAT: cerebellum” value was determined as 5.73±1.75 on hDAT [4] (2 h post i.v. injection (peak)) and 4.09±0.38 on hDAT [4] (setting [7]). The “optimum imaging time post injection” value at hDAT [4] (SupT1/SFG.hDAT.I.CD34 xenografts, SPECT) amounted to 2 h. In addition, the “co-localisation of SPECT signal with MR contrast at xenograft site” value on hDAT [4] (co-registered SPECT-MR-CT, 2 h post i.v. injection) was “good co-localisation; also recorded: good correlation”. In addition, the “time post radiotracer injection at which hDAT-positive xenografts were visualised by SPECT” value on hDAT [4] (dynamic SPECT at 15 min, 2 h, 4 h, 6 h) was “as early as 15 min and up to 6 hr”.
As for `COC(=O)[C@H]1[C@@H](c2ccc(I)cc2)C[C@@H]2CC[C@H]1N2CCC[18F]` [^18F-FP-CIT, [^18F] fluoropropyl-carbomethoxy-iodophenyl-nortropane], the “detection of hDAT positive cells by PET/CT” value at hDAT [5] is “could also be detected”.
Take RQR8-hDAT: hDAT tagged with RQR8: the “binding of [123I]-FP-CIT by hDAT variant” value in experiment [6] is recorded as “increased levels”.

B1: hDAToptD313N: hDAT including a D313N mutation (protein, UniProt Q01959 1-620, looked up, variant D313N)
Sodium-dependent dopamine …: MSKSKCSVGLMSSVVAPAKEPNAVGPKEVELILVKEQNGVQLTSSTLTNPRQSPVEAQDRETWGKKIDFLLSVIGFAVDLANVWRFPYLCYKNGGGAFLVPYLLFMVIAGMPLFYMELALGQFNREGAAGVWKICPILKGVGFTVILISLYVGFFYNVIIAWALHYLFSSFTTELPWIHCNNSWNSPNCSDAHPGDSSGDSSGLNDTFGTTPAAEYFERGVLHLHQSHGIDDLGPPRWQLTACLVLVIVLLYFSLWKGVKTSGKVVWITATMPYVVLTALLLRGVTLPGAIDGIRAYLSVDFYRLCEASVWINAATQVCFSLGVGFGVLIAFSSYNKFTNNCYRDAIVTTSINSLTSFSSGFVVFSFLGYMAQKHSVPIGDVAKDGPGLIFIIYPEAIATLPLSSAWAVVFFIMLLTLGIDSAMGGMESVITGLIDEFQLLHRHRELFTLFIVLATFLLSLFCVTNGGIYVFTLLDHFAAGTSILFGVLIEAIGVAWFYGVGQFSDDIQQMTGQRPSLYWRLCWKLVSPCFLLFVVVVSIVTFRPPHYGAYIFPDWANALGWVIATSSMAMVPIYAAYKFCSLPGSFREKLAYAIAPEKDRELVDRGEVRQFTLRHWLKV
As to B1, the “binding of [123I]-FP-CIT by hDAT variant” value in experiment [6] is “increased levels”.

B2: hDAT: human dopamine transporter expressed from tricistronic construct RQR8.2A.aCD19.2A.hDAT_opt (protein)
chain: B1 Sodium-dependent dopamine … with N313D
modifications: hDAT protein sequence
Turning to B2, the “binding of [123I]-FP-CIT by hDAT co-expressed with CD19 CAR” value in experiment [6] (hDAT expressed from CD19 CAR-hDAT tricistronic construct, FIG. 8C) was “able to bind”.

B3: dhDATopt: truncated hDAT, probably lacking the 49 N-terminal amino acids compared to wild-type hDAT (protein)
chain: MSKSKCSVGLMSSVVAPAKEPNAVGPKEVELILVKEQNGVQLTSSTLTNPRQSPVEAQDRETWGKKIDFLLSVIGFAVDLANVWRFPYLCYKNGGGAFLVPYLLFMVIAGMPLFYMELALGQFNREGAAGVWKICPILKGVGFTVILISLYVGFFYNVIIAWALHYLFSSFTTELPWIHCNNSWNSPNCSDAHPGDSSGDSSGLNDTFGTTPAAEYFERGVLHLHQSHGIDDLGPPRWQLTACLVLVIVLLYFSLWKGVKTSGKVVWITATMPYVVLTALLLRGVTLPGAIDGIRAYLSVDFYRLCEASVWIDAATQVCFSLGVGFGVLIAFSSYNKFTNNCYRDAIVTTSINSLTSFSSGFVVFSFLGYMAQKHSVPIGDVAKDGPGLIFIIYPEAIATLPLSSAWAVVFFIMLLTLGIDSAMGGMESVITGLIDEFQLLHRHRELFTLFIVLATFLLSLFCVTNGGIYVFTLLDHFAAGTSILFGVLIEAIGVAWFYGVGQFSDDIQQMTGQRPSLYWRLCWKLVSPCFLLFVVVVSIVTFRPPHYGAYIFPDWANALGWVIATSSMAMVPIYAAYKFCSLPGSFREKLAYAIAPEKDRE
modifications: dhDATopt_d protein sequence
notes: truncated hDAT, probably lacking the 49 N-terminal amino acids compared to wild-type hDAT
Take B3: the “binding of [123I]-FP-CIT by hDAT variant” value in experiment [6] is given as “able to bind”.
